Patent publication US20070238793A1, “Structural carotenoid analogs or derivatives for the modulation of systemic and/or target organ redox status” (priority 2005, published 2007)

How the values were obtained:
[1] = test system: superoxide anion signal from PMA-stimulated human polymorphonuclear leukocytes (PMNs); test: Direct superoxide anion scavenging by EPR spectroscopy (DEPMPO spin trap) in PMA-stimulated isolated human neutrophils; assay type: cell-based; conditions: millimolar range, water
Experimental: Leukocyte Isolation and Preparation. Human polymorphonuclear leukocytes (PMNs) were isolated from freshly sampled venous blood of a single volunteer by Percoll density gradient centrifugation as described previously. Briefly, each 10 mL of whole blood was mixed with 0.8 mL of 0.1 M EDTA and 25 mL of saline. The diluted blood was then layered over 9 mL of Percoll at a specific density of 1.080 g/mL. After centrifugation at 400×g for 20 min at 20° C., the plasma, mononuclear cell, and Percoll layers were removed. Erythrocytes were subsequently lysed by addition of 18 mL of ice-cold water for 30 s, followed by 2 mL of 10×PIPES buffer (25 mM PIPES, 110 mM NaCl, and 5 mM KCl, titrated to pH 7.4 with NaOH). […] Afterward, PMNs were counted by light microscopy on a hemocytometer. […]
EPR Measurements. […] The microwave frequency was measured with a Model 575 microwave counter (EIP Microwave, Inc., San Jose, Calif.). […]
Instrument settings used in the spin-trapping experiments were as follows: modulation amplitude, 0.32 G; time constant, 0.16 s; scan time, 60 s; modulation frequency, 100 kHz; microwave power, 20 milliwatts; and microwave frequency, 9.76 GHz. The samples were placed in a quartz EPR flat cell, and spectra were recorded. The component signals in the spectra were identified and quantified as reported previously.

[2] = test system: mouse heart (myocardium) redox status; test: Whole-body time-course PEDRI of TEMPONE nitroxide decay in the myocardial region of treated mice; assay type: in vivo; conditions: 10 mg/kg daily I.V. for 4 days, TEMPONE probe
Description: Proton electron double resonance imaging (PEDRI) is a recently developed low-field double magnetic resonance technique (Lurie et al. 2002). The technique uses the Overhauser effect to image the distribution of free radicals in biological samples. Of particular interest is that the technique can be extended to whole animals, allowing systemic redox state analysis as well as individual target organ analysis after therapeutic treatment. The in vivo application of the technique requires a balance between the electron paramagnetic resonance (EPR) irradiation frequency and the magnetic field applied: sufficiently low magnetic field must be utilized that allows penetration of the whole animal, while at the same time limiting nonresonant power deposition in the animal. […]
After the mice were placed in the PEDRI resonator, a bolus injection of 0.55-0.6 mL (normalized to the body weight of the individual animal) of 100 mM TEMPONE solution in PBS was given over 50-55 s through the tail vein. A series of time-course PEDRI measurements were then acquired every 10-15 s after the injection of the nitroxide probe solution, until the image intensity reached a minimum (i.e., no nitroxide signal could be detected). […]

| Compound | aqueous superoxide scavenging profile (in words) [1] | rate of nitroxide reduction in the mouse heart compared to untreated control animals [2] | half-time (t) for the decay of the nitroxide signal intensity, myocardial region ([2]; mean±SEM, n=4, untreated 0.49±0.08) [min] |
| --- | --- | --- | --- |
| 3,3′-Diphosphoryloxy-β,ε-carotene sodium salt [compound 9] | slightly increased scavenging |  |  |
| CC1=C(/C=C/C(C)=C/C=C/C(C)=C/C=C/C=C(C)/C=C/C=C(C)/C=C/C2=C(C)C(=O)C(OC(=O)CCC(=O)O)CC2(C)C)C(C)(C)CC(OC(=O)CCC(=O)O)C1=O (stereo not drawn) [Cardax™, disodium disuccinate derivative of synthetic astaxanthin] |  | slower mean rate of nitroxide reduction | 0.99 ± 0.14 |
